In ChEMBL document CHEMBL1151867, “Two novel monoterpene-chalcone conjugates isolated from the seeds of Alpinia katsumadai” (Bioorg Med Chem Lett, 2009):
Values after ≈ are worked out from the molar mass of the structure shown.

Assays:
Type in all cases: functional, cell-based
HepG2 = assay: Cytotoxicity against human HepG2 cells by MTT method
MCF7 = assay: Cytotoxicity against human MCF7 cells by MTT method
MDA-MB-435 = assay: Cytotoxicity against human MDA-MB-435 cells by MTT method

Q: Which IC50 (HepG2) does the source give for `CC(C)[C@H]1C=C[C@]2(C)Oc3c(C(=O)/C=C/c4ccccc4)c(O)cc(O)c3C2C1` (stereo partly drawn) [Sumadain C] here?
A: The IC50 was 13 µg/mL (≈ 33.3 µM).

Q: What about the IC50 (MCF7) of the same compound?
A: Its IC50 is 15.9 µg/mL (≈ 40.8 µM).

Q: What about the IC50 (MDA-MB-435) of the same compound?
A: The IC50 was 12.8 µg/mL (≈ 32.7 µM).
